Columns and labels:
Format in all cases: cell-based
P2Y1 = biological target: T1, P2Y1 (Homo sapiens, UniProt P47900); assay: Intracellular calcium mobilization (FLIPR, Fluo-3 AM) in 1321N1 cells expressing P2Y1; conditions: 1321N1 cells expressing P2Y1, intracellular calcium
T1 construct: expressed in transfected cells; host or cells: human astrocytoma 1321N1 cells
Procedure: (§1) Human astrocytoma (1321N1) cells expressing P2Y1, P2Y2, P2Y4, and P2Y6 were grown to confluency in 96-well plates. Cells were loaded with a solution of Fluo-3 AM (2.5 μM final concentration) in an assay buffer consisting of 10 mM KCl, 118 mM NaCl, 2.5 mM CaCl2, 1 mM MgCl2, 20 mM HEPES, 10 mM glucose, pH 7.4. After a 60-minute incubation with Fluo-3 AM at 25° C., cells were washed and stimulated with serially diluted concentrations of compounds uridine 5′-diphosphate (UDP), P^1, P^3-(diuridine 5′-)triphosphate (UP3U) or P^1-(2′,3′-benzylacetal uridine 5′-)P^3-(uridine 5′-)triphosphate (mono-benzylacetal UP3U). Intracellular calcium levels were monitored in each well simultaneously by measuring the changes in fluorescence intensity using the FLIPR (Molecular Devices Corp., Sunnyvale, Calif.). Values for compounds UDP, UP3U, and mono-benzylacetal UP3U in Table 1 are presented as EC50 values corresponding to the concentration of an agonist that produces 50% of the maximum possible response.

P2Y2 = biological target: T2, P2Y2 (Homo sapiens, UniProt P41231); assay: Intracellular calcium mobilization (FLIPR, Fluo-3 AM) in 1321N1 cells expressing P2Y2; conditions: 1321N1 cells expressing P2Y2, intracellular calcium
T2 construct: expressed in transfected cells; host or cells: human astrocytoma 1321N1 cells
Procedure: as §1

P2Y4 = biological target: T3, P2Y4 (Homo sapiens, UniProt P51582); assay: Intracellular calcium mobilization (FLIPR, Fluo-3 AM) in 1321N1 cells expressing P2Y4; conditions: 1321N1 cells expressing P2Y4, intracellular calcium
T3 construct: expressed in transfected cells; host or cells: human astrocytoma 1321N1 cells
Procedure: as §1

P2Y6 = biological target: T4, P2Y6 (Homo sapiens, UniProt Q15077); assay: Intracellular calcium mobilization (FLIPR, Fluo-3 AM) in 1321N1 cells expressing P2Y6; conditions: 1321N1 cells expressing P2Y6, intracellular calcium
T4 construct: expressed in transfected cells; host or cells: human astrocytoma 1321N1 cells
Procedure: as §1

T3 sequence (P51582 whole entry, species assumed): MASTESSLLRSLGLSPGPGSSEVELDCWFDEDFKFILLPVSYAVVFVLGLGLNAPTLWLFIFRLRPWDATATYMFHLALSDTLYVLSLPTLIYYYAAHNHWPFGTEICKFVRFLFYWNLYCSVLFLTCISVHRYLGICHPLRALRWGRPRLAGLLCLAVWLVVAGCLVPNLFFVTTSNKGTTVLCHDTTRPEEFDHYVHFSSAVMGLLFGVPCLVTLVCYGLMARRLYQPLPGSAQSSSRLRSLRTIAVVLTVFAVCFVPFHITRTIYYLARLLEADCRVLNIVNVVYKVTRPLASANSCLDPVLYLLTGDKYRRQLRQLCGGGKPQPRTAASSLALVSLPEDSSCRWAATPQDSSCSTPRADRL
T4 sequence (Q15077 whole entry, species assumed): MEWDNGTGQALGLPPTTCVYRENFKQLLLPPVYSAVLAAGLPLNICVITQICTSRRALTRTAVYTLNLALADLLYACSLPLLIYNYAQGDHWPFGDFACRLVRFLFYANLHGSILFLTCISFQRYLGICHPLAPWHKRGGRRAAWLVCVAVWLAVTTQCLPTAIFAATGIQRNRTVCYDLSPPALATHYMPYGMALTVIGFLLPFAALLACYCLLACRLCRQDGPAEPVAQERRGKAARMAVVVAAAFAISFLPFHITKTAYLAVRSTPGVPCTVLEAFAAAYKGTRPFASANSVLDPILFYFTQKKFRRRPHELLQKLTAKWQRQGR
T1 sequence (P47900 whole entry, species assumed): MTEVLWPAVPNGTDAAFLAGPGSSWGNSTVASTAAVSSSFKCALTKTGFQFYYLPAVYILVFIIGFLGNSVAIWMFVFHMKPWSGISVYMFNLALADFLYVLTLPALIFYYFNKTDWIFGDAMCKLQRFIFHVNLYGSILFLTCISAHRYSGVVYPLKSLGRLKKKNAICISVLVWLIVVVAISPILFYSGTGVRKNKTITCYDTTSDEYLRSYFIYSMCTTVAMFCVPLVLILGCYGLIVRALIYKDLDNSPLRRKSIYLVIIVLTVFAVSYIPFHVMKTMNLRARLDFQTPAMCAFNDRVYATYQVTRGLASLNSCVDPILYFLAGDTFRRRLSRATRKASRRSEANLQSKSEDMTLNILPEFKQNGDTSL
T2 sequence (P41231 whole entry, species assumed): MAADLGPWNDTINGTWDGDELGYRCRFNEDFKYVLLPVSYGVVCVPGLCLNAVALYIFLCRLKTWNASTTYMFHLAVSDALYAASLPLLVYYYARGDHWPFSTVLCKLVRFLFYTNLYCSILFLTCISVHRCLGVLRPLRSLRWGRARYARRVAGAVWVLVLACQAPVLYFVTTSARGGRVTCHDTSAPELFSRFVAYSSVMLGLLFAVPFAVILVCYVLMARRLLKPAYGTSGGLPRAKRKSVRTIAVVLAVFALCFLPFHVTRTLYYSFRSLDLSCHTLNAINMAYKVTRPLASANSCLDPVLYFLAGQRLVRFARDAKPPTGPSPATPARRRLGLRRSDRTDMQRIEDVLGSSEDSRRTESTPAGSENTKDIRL

EC50 (P2Y1)	EC50 (P2Y2)	EC50 (P2Y4)	EC50 (P2Y6)	SMILES
> 100 µM	4.2 µM	9.48 µM	0.5 µM	O=c1ccn([C@@H]2O[C@H](COP(=O)(O)OP(=O)(O)O)[C@@H](O)[C@H]2O)c(=O)[nH]1 [UDP, uridine 5′-diphosphate]
> 100 µM	> 100 µM	> 100 µM	0.14 µM	O=c1ccn([C@@H]2O[C@H](COP(=O)(O)OP(=O)(O)OP(=O)(O)OC[C@@H]3O[C@H](n4ccc(=O)[nH]c4=O)C4OC(Cc5ccccc5)OC43)C(O)C2O)c(=O)[nH]1 (stereo partly drawn) [mono-benzylacetal UP3U, P^1-(2′,3′-benzylacetaluridine 5′-)P^3-(uridine 5′-)triphosphate]
> 100 µM	13 µM	> 100 µM	0.92 µM	O=c1ccn([C@@H]2O[C@H](COP(=O)(O)OP(=O)(O)OP(=O)(O)OC[C@H]3O[C@@H](n4ccc(=O)[nH]c4=O)[C@H](O)[C@@H]3O)[C@@H](O)[C@H]2O)c(=O)[nH]1 [UP3U, P^1, P^3-(diuridine 5′-)triphosphate]

— patent US8158776B2, “P2Y6 receptor agonists for treating lung diseases” (Inspire Pharmaceuticals, Inc., priority 2005, dated 2012)
